According to US20100075960A1 (priority 2006, published 2010):

What follows are compounds tested on HCT116 (assay: Inhibition of cell proliferation, HCT116). Details: Homo sapiens, HCT-116; 72 h treatment; methylene blue or CellTiter-Glo.
Type: cell-based
Description: II. Inhibition of Cell Proliferation by PLK1 Inhibitors.
Exponentially growing cell lines of different tumor origins, cultured in appropriate media containing 10% fetal bovine serum at 37° C. in a 5% CO2 incubator were plated in 96 or 384-well plates. Twenty four hours post-plating, cells were treated with different concentrations of test compounds ranging from 20 μM to 0.04 nM. Several wells were left untreated as a control. Seventy two hours post-treatment, cell numbers were determined using different techniques; 100 μl per well of methylene blue (Sigma M9140) (0.5% in 50:50 Ethanol:water), or 10-100 μl per well of CellTiter-Glo (Promega #G7573), depending on well size. For methylene blue staining, stain was incubated at room temperature for 30 minutes before plates were rinsed and dye solubilized in 1% N-lauroyl sarcosine, sodium salt, (Sigma L5125, in PBS). Plates were read on a microplate reader, measuring the OD at 620 nm. For CellTiter-Glo, plates were incubated at room temperature for 15 minutes and the chemiluminescent signal was read on the Victor V or Envison 2100 reader.
Percent inhibition of cell growth was expressed as percent proliferation relative to 100% proliferation (control). Concentration of test compound that inhibited 50% of cell growth (IC50) was determined by 4 parameter fit of data using XLfit, (value of no cell control was substracted from all samples for background). The data are shown in Table 1 and Table 2 below and represent a compilation of several different experiments each performed using the general parameters outlined above, although minor variations may have been employed in some instances, in Table 1 and Table 2, +=IC50>1 μM; ++=IC50 0.5-1 μM: +++=IC50<0.5 μM.

Row | IC50 [nM] | SMILES
1 | < 500 | C[C@@H](Oc1cc(-n2cnc3ccc(Br)cc32)sc1C(N)=O)c1cccc(OC2CCN(C)CC2)c1Cl [Example 6, 5-(6-Bromo-1H-benzimidazol-1-yl)-3-[((1R)-1-{2-chloro-3-[(1-methyl-4-piperidinyl)oxy]phenyl}ethyl)oxy]-2-thiophenecarboxamide]
2 | < 500 | C[C@@H](Oc1cc(-n2cnc3ccccc32)sc1C(N)=O)c1cccc(OC2CCN(C)CC2)c1Cl [Example 13, 5-(1H-benzimidazol-1-yl)-3-[((1R)-1-{2-chloro-3-[(1-methyl-4-piperidinyl)oxy]phenyl}ethyl)oxy]-2-thiophenecarboxamide]
3 | < 500 | C[C@@H](Oc1cc(-n2cnc3ccccc32)sc1C(N)=O)c1cccc(OC2CCNCC2)c1Cl [Example 14, 5-(1H-Benzimidazol-1-yl)-3-({(1R)-1-[2-chloro-3-(4-piperidinyloxy)phenyl]ethyl}oxy)-2-thiophenecarboxamide]
4 | < 500 | C[C@@H](Oc1cc(-n2cnc3ccccc32)sc1C(N)=O)c1cccc(OCCN2CCOCC2)c1Cl [Example 15, 5-(1H-benzimidazol-1-yl)-3-{[(1R)-1-(2-chloro-3-{[2-(4-morpholinyl)ethyl]oxy}phenyl)ethyl]oxy)-2-thiophenecarboxamide]
5 | < 500 | C[C@@H](Oc1cc(-n2cnc3ccccc32)sc1C(N)=O)c1cccc(OCCN2CCNCC2)c1Cl [Example 16, 5-(1H-benzimidazol-1-yl)-3-{[(1R)-1-(2-chloro-3-{[2-(1-piperazinyl)ethyl]oxy}phenyl)ethyl]oxy}-2-thiophenecarboxamide]
6 | < 500 | C[C@@H](Oc1cc(-n2cnc3ccccc32)sc1C(N)=O)c1cccc(OCCN2CCN(C)CC2)c1Cl [Example 17]
7 | < 500 | CCN1CCC(Oc2cccc([C@@H](C)Oc3cc(-n4cnc5cc(Cl)ccc54)sc3C(N)=O)c2Cl)CC1 [Example 19, 5-(5-Chloro-1H-benzimidazol-1-yl)-3-[((1R)-1-{2-chloro-3-[(1-ethyl-4-piperidinyl)oxy]phenyl}ethyl)oxy]-2-thiophenecarboxamide]
8 | < 500 | C[C@@H](Oc1cc(-n2cnc3cc(Cl)ccc32)sc1C(N)=O)c1cccc(OC2CCN(CCO)CC2)c1Cl [Example 20, 5-(5-Chloro-1H-benzimidazol-1-yl)-3-{((1R)-1-(2-chloro-3-{[1-(2-hydroxyethyl)-4-piperidinyl]oxy}phenyl)ethyl]oxy}-2-thiophenecarboxamide]
9 | < 500 | C[C@@H](Oc1cc(-n2cnc3cc(Cl)ccc32)sc1C(N)=O)c1cccc(OC2CCN(CCF)CC2)c1Cl [Example 21, 5-(5-Chloro-1H-benzimidazol-1-yl)-3-{[(1R)-1-(2-chloro-3-{[1-(2-fluoroethyl)-4-piperidinyl]oxy}phenyl)ethyl]oxy}-2-thiophenecarboxamide]

The remaining lines, values behind:

Row | SMILES | IC50 [nM]
10 | CC(Oc1cc(-n2cnc3cc(-c4cnn(C)c4)ccc32)sc1C(N)=O)c1cccc(OC2CCNCC2)c1 (racemic) [Example 73, (±)-5-[5-(1-Methyl-1H-pyrazol-4-yl)-1H-benzimidazol-1yl[-3-({1-[3-(4-piperidinyloxy)phenyl]ethyl}oxy)-2-thiophenecarboxamide] | > 1000
11 | CC(Oc1cc(-n2cnc3cc(-c4cnn(C)c4)ccc32)sc1C(N)=O)c1cccc(OC2CCN(C)CC2)c1 (racemic) [Example 74, (±)-3-[(1-{3-[(1-methyl-4-piperidinyl)oxy]phenyl}ethyl)oxy]-5-[5-(1-methyl-1H-pyrazol-4-yl)-1H-benzimidazol-1-yl]-2-thiophenecarboxamide] | < 500
12 | CC(Oc1cc(-n2cnc3cc(-c4cnn(C)c4)ccc32)sc1C(N)=O)c1cccc(OC2CCNCC2)c1F (racemic) [Example 75] | < 500
13 | CC(Oc1cc(-n2cnc3cc(-c4cnn(C)c4)ccc32)sc1C(N)=O)c1cccc(OC2CCN(C)CC2)c1F (racemic) [Example 76, (±)-3-[(1-{2-Fluoro-3-[(1-methyl-4-piperidinyl)oxy]phenyl}ethyl)oxy]-5-[5-(1-methyl-1H-pyrazol-4-yl)-1H-benzimidazol-1-yl]-2-thiophenecarboxamide] | < 500
14 | CC(Oc1cc(-n2cnc3cc(-c4cnn(C)c4)ccc32)sc1C(N)=O)c1ccnc(OC2CCNCC2)n1 (racemic) [Example 77, (±)-5-[5-(1-Methyl-1H-pyrazol-4-yl)-1H-benzimidazol-1-yl]-3-({1-[2-(4-piperidinyloxy-4-pyrimidinyl]ethyl}oxy)-2-thiophenecarboxamide] | > 1000
15 | CC(Oc1cc(-n2cnc3cc(-c4cnn(C)c4)ccc32)sc1C(N)=O)c1ccnc(OC2CCN(C)CC2)n1 (racemic) [Example 78, (±)-3-[(1-(2-[(1-methyl-4-piperidinyl)oxy]-4-pyrimidinyl}ethyl)oxy]-5-[5-(1-methyl-1H-pyrazol-4-yl)-1H-benzimidazol-1-yl]-2-thiophenecarboxamide] | > 1000
16 | CC(Oc1cc(-n2cnc3cc(-c4cnn(C)c4)ccc32)sc1C(N)=O)c1ccnc(OC2CCNCC2)c1 (racemic) [Example 79, (±)-5-[5-(1-Methyl-1H-pyrazol-4-yl)-1H-benzimidazol-1-yl]-3-({1-[2-(4-piperidinyloxy)-4-pyridinyl]ethyl}oxy)-2-thiophenecarboxamide] | > 1000
17 | CC(Oc1cc(-n2cnc3cc(-c4cnn(C)c4)ccc32)sc1C(N)=O)c1cccc(OC2CCNCC2)n1 (racemic) [Example 81, (±)-5-[5-(1-Methyl-1H-pyrazol-4-yl)-1H-benzimidazol-1-yl]-3-({1-[6-(4-piperidinyloxy)-2-pyridinyl]ethyl}oxy)-2-thiophenecarboxamide] | > 1000
18 | CC(Oc1cc(-n2cnc3cc(-c4cnn(C)c4)ccc32)sc1C(N)=O)c1cccc(OC2CCN(C)CC2)n1 (racemic) [Example 82, (±)-3-[(1-{6-[(1-Methyl-4-piperidinyl)oxy]-2-pyridinyl)ethyl)oxy]-5-[5-(1-methyl-1H-pyrazol-4-yl)-1H-benzimidazol-1-yl]-2-thiophenecarboxamide] | > 1000
19 | COc1cc2ncn(-c3cc(O[C@H](C)c4cccc(NCC5CCNCC5)c4Cl)c(C(N)=O)s3)c2cc1OC [Example 1] | 500 to 1000
20 | COc1cc2ncn(-c3cc(O[C@H](C)c4cccc(NCC5CCN(C)CC5)c4Cl)c(C(N)=O)s3)c2cc1OC [Example 2] | < 500
21 | C[C@@H](Oc1cc(-n2cnc3ccc(C#N)cc32)sc1C(N)=O)c1cccc(OC2CCN(C)CC2)c1Cl [Example 4, 3-((1R)-1-{2-chloro-3-[(1-methylpiperidin-4-yl)oxy]phenyl}-ethoxy)-5-(6-cyano-1H-benzimidazol-1-yl)thiophene-2-carboxamide] | < 500
22 | C[C@@H](Oc1cc(-n2cnc3ccc(C#N)cc32)sc1C(N)=O)c1cccc(OC2CCNCC2)c1Cl [Example 5, 3-{(1R)-1-[2-chloro-3-(piperidin-4-yloxy)phenyl]ethoxy}-5-(6-cyano-1H-benzimidazol-1-yl)thiophene-2-carboxamide] | < 500
23 | C[C@@H](Oc1cc(-n2cnc3ccc(Br)cc32)sc1C(N)=O)c1cccc(OC2CCNCC2)c1Cl [Example 7, 5-(6-Bromo-1H-benzimidazol-1-yl)-3-({(1R)-1-[2-chloro-3-(4-piperidinyloxy)phenyl]ethyl}oxy)-2-thiophenecarboxamide] | < 500
24 | C[C@@H](Oc1cc(-n2cnc3cc(Cl)ccc32)sc1C(N)=O)c1cccc(OC2CCNCC2)c1Cl [Example 8, 5-(5-Chloro-1H-benzimidazol-1-yl)-3-({(1R)-1-[2-chloro-3-(4-piperidinyloxy)phenyl]ethyl}oxy)-2-thiophenecarboxamide] | < 500
25 | Cc1ccc(-c2ccc3c(c2)ncn3-c2cc(O[C@H](C)c3cccc(OC4CCNCC4)c3Cl)c(C(N)=O)s2)cn1 [Example 9, 3-({(1R)-1-[2-chloro-3-(4-piperidinyloxy)phenyl]ethyl}oxy)-5-[5-(6-methyl-3-pyridinyl)-1H-benzimidazol-1-yl]-2-thiophenecarboxamide] | < 500
26 | Cc1ccc(-c2ccc3c(c2)ncn3-c2cc(O[C@H](C)c3cccc(OC4CCN(C)CC4)c3Cl)c(C(N)=O)s2)cn1 [Example 10, 3-[((1R)-1-[2-chloro-3-[(1-methyl-4-piperidinyl)oxy]phenyl}ethyl)oxy]-5-[5-(6-methyl-3-pyridinyl)-1H-benzimidazol-1-yl]-2-thiophenecarboxamide] | < 500
27 | C[C@@H](Oc1cc(-n2cnc3cc(-c4cccnc4)ccc32)sc1C(N)=O)c1cccc(OC2CCN(C)CC2)c1Cl [Example 11, 3-[((1R)-1-[2-chloro-3-[(1-methyl-4-piperidinyl)oxy]phenyl}ethyl)oxy}-5-[5-(3-pyridinyl)-1H-benzimidazol-1-yl]-2-thiophenecarboxamide] | < 500
28 | C[C@@H](Oc1cc(-n2cnc3cc(-c4cccnc4)ccc32)sc1C(N)=O)c1cccc(OC2CCNCC2)c1Cl [Example 12, 3-({(1R)-1-[2-chloro-3-(4-piperidinyloxy)phenyl]ethyl}oxy)-5-[5-(3-pyridinyl)-1H-benzimidazol-1-yl]-2-thiophenecarboxamide] | < 500
29 | C[C@@H](Oc1cc(-n2cnc3cc(-c4ccc(NC5CCN(C)CC5)nc4)ccc32)sc1C(N)=O)c1cccc(OC2CCN(C)CC2)c1Cl [Example 18] | < 500
